Each block holds one compound with its values, some of them ahead of it.
How the values were obtained:
[1] = system: Rat; assay: concentration in plasma after dosing; conditions: 2.5 min; dosed: Wyeth-14643; 2.0 mg/kg; iv; Male; Sprague-Dawley
[2] = system: Rat; assay: concentration in plasma after dosing; conditions: 4 h; dosed: Wyeth-14643; 5.0 mg/kg; oral; Male; Sprague-Dawley
[3] = system: Rat; assay: concentration in plasma after dosing; conditions: dosed: Wyeth-14643, 2.0 mg/kg, oral, Male, Sprague-Dawley
[4] = system: Rat; assay: concentration in heart after dosing; conditions: 6 h; dosed: Bis 2-Chloroethoxy Methane; 20 mg/kg; iv; Female; F344
[5] = system: Rat; assay: concentration in heart after dosing; conditions: 4 h; dosed: Bis 2-Chloroethoxy Methane; 20 mg/kg; iv; Female; F344
[6] = system: Rat; assay: concentration in plasma after dosing; conditions: 40 min; dosed: Bis 2-Chloroethoxy Methane; 20 mg/kg; iv; Female; F344
[7] = system: Rat; assay: concentration in thymus after dosing; conditions: 1 h; dosed: Bis 2-Chloroethoxy Methane; 20 mg/kg; iv; Female; F344
[8] = system: Rat; assay: concentration in thymus after dosing; conditions: 1 h; dosed: Bis 2-Chloroethoxy Methane; 20 mg/kg; iv; Female; F344; remark: listed apart in the source
[9] = system: Rat; assay: concentration in plasma after dosing; conditions: dosed: Fluorotelomer alcohol 8+2, 12 mg/kg, oral, Male, Harlan Sprague Dawley
[10] = system: Rat; assay: concentration in kidney after dosing; conditions: 0.5 h; dosed: Fluorotelomer alcohol 8+2; 24 mg/kg; oral; Male; Harlan Sprague Dawley
[11] = system: Rat; assay: concentration in brain after dosing; conditions: 6 h; dosed: Fluorotelomer alcohol 8+2; 24 mg/kg; oral; Male; Harlan Sprague Dawley
[12] = system: Rat; assay: concentration in plasma after dosing; conditions: dosed: Fluorotelomer alcohol 8+2, 12 mg/kg, oral, Male, Harlan Sprague Dawley; remark: listed apart in the source
[13] = system: Rat; assay: concentration in liver after dosing; conditions: 3 h; dosed: Fluorotelomer alcohol 8+2; 24 mg/kg; oral; Male; Harlan Sprague Dawley
[14] = system: Rat; assay: concentration in plasma after dosing; conditions: dosed: Fluorotelomer alcohol 8+2, 12 mg/kg, iv, Male, F344
[15] = system: Rat; assay: concentration in kidney after dosing; conditions: 12 h; dosed: Fluorotelomer alcohol 8+2; 24 mg/kg; oral; Male; Harlan Sprague Dawley
[16] = system: Rat; assay: concentration in plasma after dosing; conditions: 2 h; dosed: Di-n-butyl phthalate; 20 mg/kg; iv; Male; Sprague-Dawley
[17] = system: Rat; assay: concentration in plasma after dosing; conditions: 24 h; dosed: Di-n-butyl phthalate; 100 mg/kg; oral; Male; Sprague-Dawley
[18] = system: Rat; assay: concentration in plasma after dosing; conditions: 1 h; dosed: Di-n-butyl phthalate; 100 mg/kg; oral; Male; Sprague-Dawley
[19] = system: Rat; assay: concentration in plasma after dosing; conditions: 4 h; dosed: Di-n-butyl phthalate; 100 mg/kg; oral; Male; Sprague-Dawley
[20] = system: Rat; assay: concentration in liver after dosing; conditions: 1 h; dosed: Perfluorodecanoic acid; 10 mg/kg; oral; Male; Harlan Sprague Dawley
[21] = system: Rat; assay: concentration in kidney after dosing; conditions: 1 h; dosed: Perfluorodecanoic acid; 10 mg/kg; oral; Female; Harlan Sprague Dawley
[22] = system: Rat; assay: concentration in plasma after dosing; conditions: 12 h; dosed: Primidone; 30 mg/kg; oral; Male; F344
[23] = system: Rat; assay: concentration in plasma after dosing; conditions: 1.5 h; dosed: Primidone; 80 mg/kg; oral; Female; F344
[24] = system: Rat; assay: concentration in plasma after dosing; conditions: 6 h; dosed: Primidone; 130 mg/kg; oral; Female; F344
[25] = system: Rat; assay: concentration in thymus after dosing; conditions: 20 min; dosed: Thiodiglycolic Acid; 20 mg/kg; iv; Female; Harlan Sprague Dawley
[26] = system: Rat; assay: concentration in liver after dosing; conditions: 5.333 h; dosed: Thiodiglycolic Acid; 20 mg/kg; iv; Female; Harlan Sprague Dawley
[27] = system: Rat; assay: concentration in thymus after dosing; conditions: 4 h; dosed: Thiodiglycolic Acid; 20 mg/kg; iv; Female; Harlan Sprague Dawley
[28] = system: Rat; assay: concentration in thymus after dosing; conditions: 8 h; dosed: Thiodiglycolic Acid; 20 mg/kg; iv; Female; Harlan Sprague Dawley
[29] = system: Rat; assay: concentration in thymus after dosing; conditions: 6.667 h; dosed: Thiodiglycolic Acid; 20 mg/kg; iv; Female; Harlan Sprague Dawley
[30] = system: Rat; assay: concentration in thymus after dosing; conditions: 10 h; dosed: Thiodiglycolic Acid; 20 mg/kg; iv; Female; Harlan Sprague Dawley
[31] = system: Rat; assay: concentration in heart after dosing; conditions: 2 h; dosed: Thiodiglycolic Acid; 20 mg/kg; iv; Male; Harlan Sprague Dawley
[32] = system: Rat; assay: concentration in liver after dosing; conditions: 10 min; dosed: Thiodiglycolic Acid; 20 mg/kg; iv; Female; Harlan Sprague Dawley
[33] = system: Rat; assay: concentration in plasma after dosing; conditions: dosed: dichloroacetic acid, 100 mg/kg, oral, Male, F344
[34] = system: Rat; assay: concentration in plasma after dosing; conditions: dosed: dichloroacetic acid, 100 mg/kg, oral, Male, F344; remark: listed apart in the source
[35] = system: Rat; assay: concentration in plasma after dosing; conditions: 0.25 h; dosed: dichloroacetic acid; 10 mg/kg; oral; Male; Harlan Sprague Dawley
[36] = system: Rat; assay: concentration in plasma after dosing; conditions: 40 min; dosed: dichloroacetic acid; 40 mg/kg; oral; Female; Harlan Sprague Dawley
[37] = system: Rat; assay: concentration in plasma after dosing; conditions: 10 min; dosed: dichloroacetic acid; 10 mg/kg; iv; Male; F344
[38] = system: Rat; assay: concentration in plasma after dosing; conditions: dosed: dichloroacetic acid, 40 mg/kg, oral, Female, Harlan Sprague Dawley

- concentration in plasma [1]: 29300 ng/mL
- concentration in plasma [2]: 955 ng/mL
- concentration in plasma ([3]; 0.25 h): 889 ng/mL
- concentration in plasma ([3]; 4 h): 160 ng/mL
SMILES: Cc1cccc(Nc2cc(Cl)nc(SCC(=O)O)n2)c1C

SMILES: ClCCOCOCCCl [Bis 2-Chloroethoxy Methane]
- concentration in heart [4]: 33.8 ng/g
- concentration in heart [5]: 46.5 ng/g
- concentration in plasma [6]: 1410 ng/mL
- concentration in thymus [7]: 2300 ng/g
- concentration in thymus [8]: 3420 ng/g

- concentration in plasma ([9]; 0.25 h): 183 ng/mL
- concentration in plasma ([9]; 6 h): 27.9 ng/mL
- concentration in kidney [10]: 1800 ng/g
- concentration in brain [11]: 323 ng/g
- concentration in plasma ([12]; 1 h): 255 ng/mL
- concentration in plasma ([12]; 24 h): 3.4 ng/mL
- concentration in liver [13]: 2220 ng/g
- concentration in plasma ([14]; 1 h): 619 ng/mL
- concentration in plasma ([14]; 6 h): 38.5 ng/mL
- concentration in kidney [15]: 187 ng/g
SMILES: OCCC(F)(F)C(F)(F)C(F)(F)C(F)(F)C(F)(F)C(F)(F)C(F)(F)C(F)(F)F [Fluorotelomer alcohol 8+2]

SMILES: CCCCOC(=O)c1ccccc1C(=O)O [Mono-n-butyl phthalate]
- concentration in plasma [16]: 1670 ng/mL
- concentration in plasma [17]: 2770 ng/mL
- concentration in plasma [18]: 14900 ng/mL
- concentration in plasma [19]: 10200 ng/mL

SMILES: O=C(O)C(F)(F)C(F)(F)C(F)(F)C(F)(F)C(F)(F)C(F)(F)C(F)(F)C(F)(F)C(F)(F)F [Perfluorodecanoic acid]
- concentration in liver [20]: 50300 ng/g
- concentration in kidney [21]: 20600 ng/g

SMILES: CCC1(c2ccccc2)C(=O)NC(=O)NC1=O [Phenobarbital]
- concentration in plasma [22]: 2660 ng/mL
- concentration in plasma [23]: 800 ng/mL
- concentration in plasma [24]: 2210 ng/mL

SMILES: O=C(O)CSCC(=O)O [Thiodiglycolic Acid]
- concentration in thymus [25]: 8060 ng/g
- concentration in liver [26]: 2510 ng/g
- concentration in thymus [27]: 657 ng/g
- concentration in thymus [28]: 395 ng/g
- concentration in thymus [29]: 245 ng/g
- concentration in thymus [30]: 254 ng/g
- concentration in heart [31]: 1440 ng/g
- concentration in liver [32]: 70700 ng/g

SMILES: O=C(O)C(Cl)Cl [dichloroacetic acid]
- concentration in plasma ([33]; 2 min): 2560 ng/mL
- concentration in plasma ([33]; 1.25 h): 43500 ng/mL
- concentration in plasma ([34]; 2 min): 2970 ng/mL
- concentration in plasma ([34]; 1.25 h): 54200 ng/mL
- concentration in plasma [35]: 908 ng/mL
- concentration in plasma [36]: 10700 ng/mL
- concentration in plasma [37]: 8110 ng/mL
- concentration in plasma ([38]; 10 min): 6310 ng/mL
- concentration in plasma ([38]; 1.5 h): 2780 ng/mL

Source: EPA's CvTdb concentration-time database
